Source: patent US9974761B2, “Medications for deposition on biological surfaces” (The Procter & Gamble Company, priority 2014, dated 2018)

Tested on: human TRPM8
Assay: TRPM8 Protocol-FLIPR Assay (intracellular Ca2+)
Assay type: cell-based
Conditions: for TRPM8 Time Course Activity 50 sec % of WS5 / TRPM8 Time Course Activity 3 min % of WS5 / TRPM8 Time Course Activity 5 min % of WS5 / TRPM8 Time Course Activity 10 min % of WS5: vs 30 uM WS-5; for TRPM8 Time Course Activity 3 min: fluorescence at 3 min; for TRPM8 Time Course Activity 5 min: fluorescence at 5 min; for TRPM8 Time Course Activity 10 min: fluorescence at 10 min
Description: To determine whether TRPM8 is activated, the intracellular calcium ion (Ca^2+) level was measured from transfected cells with the TRPM8 receptor sequence (SEQ ID NO: 3). HEK-293 (human embryonic kidney) cells stably transfected with human TRPM8 were grown in 15 ml growth medium (high glucose DMEM (Dulbecco's Modification of Eagle's Medium) supplemented with 10% FBS (fetal bovine serum), 100 ug/ml penicillin/streptomycin, 5 μg/ml blasticindin, and 100 μg/ml zeocin) in a 75 cm^2 flask for 3 days at 37° C. in a mammalian cell culture incubator set at 5% CO2 Cells were detached with addition of 2 ml of trypsin-EDTA buffer (GIBCO® 25200, Invitrogen, Grand Island, N.Y.) for about 2-3 min. Trypsin was inactivated by addition of 8 ml growth medium. Cells were transferred to a 50 ml tube and centrifuged at 850 rpm for 3 minutes to remove medium. After centrifugation, a pellet of cells was formed in the bottom of the tube separating them from the supernatant solution. The supernatant was discarded and the cell pellet was suspended in 1 ml of fresh growth medium to which 5 μl (12.5 μg) of Fluo-4 AM (Molecular Probes, Inc., Eugene, Oreg.) calcium indicator was added and incubated for 30 min with gentle shaking. Fluo-4 AM is a fluorescent dye used for quantifying cellular Ca^2+ concentrations in the 100 nM to 1 microM range. At the end of 30 minutes, 45 ml of assay buffer (1× HBSS (Hank's Balanced Salt Solution), 20 mM HEPES (4-(2-Hydroxyethyl)-1-piperazineethanesulfonic acid)) was added to wash cells and the resulting mixture was then centrifuged at 850 rpm for 3 minutes to remove excess buffer and Fluo-4 AM calcium indicator.
The pelleted cells were re-suspended in 10 ml assay buffer and 90 μl aliquots (˜50,000 cells) per well delivered to a 96-well assay plate containing 10 μl of test compounds (1 mM in assay buffer, […]) or buffer control and incubated at room temperature for 30 minutes. After 30 minutes, a plate was placed into a fluorometric imaging plate reader (FLIPR384 from Molecular Devices, Sunnyvale, Calif.) and basal fluorescence recorded (excitation wave length 488 nm and emission wave length 510 nm). Then 20 μl of […] of TRPM8 agonist WS5 coolant in the assay buffer was added and fluorescence recorded. For determining the direct effect of test compounds on TRPM8, fluorescence was measured immediately after addition of each compound (TABLES 2 and 3). Additional discussion of the FLIPR method can be found in Smart et al., Characterization using FLIPR of human vanilloid VR1 receptor pharmacology, European Journal of Pharmacology 417, 51-58 (2001) and Liu et al., Development and validation of a platelet calcium flux assay using a fluorescent imaging plate reader, Analytical Biochemistry 357, 216-224 (2006).
TRPM8 activation was determined by measuring intracellular calcium ion (Ca^2+) level from transfected cells with the TRPM8 receptor gene, as described in EXAMPLE 1, the results of which are shown in TABLES 4 and 5.

Compound: CC(C)[C@@H]1CC[C@@H](C)C[C@H]1C(=O)NCC(NC(=O)[C@@H](C)N)c1ccccc1 (single isomer, unassigned) [Compound 28 fraction 1]
- TRPM8 Time Course Activity 50 sec % of WS5 (dose 6.1 nM): 8.8%
- TRPM8 Time Course Activity 3 min % of WS5 (dose 6.1 nM): 36.5%
- TRPM8 Time Course Activity 5 min % of WS5 (dose 6.1 nM): 46.7%
- TRPM8 Time Course Activity 10 min % of WS5 (dose 6.1 nM): 56.1%
- TRPM8 Time Course Activity 3 min (dose 6.1 nM): 3452.0
- TRPM8 Time Course Activity 5 min (dose 6.1 nM): 4426.0
- TRPM8 Time Course Activity 10 min (dose 6.1 nM): 5375.0
- TRPM8 Time Course Activity 50 sec % of WS5 (dose 12.2 nM): 30.0%
- TRPM8 Time Course Activity 3 min % of WS5 (dose 12.2 nM): 93.0%
- TRPM8 Time Course Activity 5 min % of WS5 (dose 12.2 nM): 103.8%
- TRPM8 Time Course Activity 10 min % of WS5 (dose 12.2 nM): 115.5%
- TRPM8 Time Course Activity 3 min (dose 12.2 nM): 8783.0
- TRPM8 Time Course Activity 5 min (dose 12.2 nM): 9830.0
- TRPM8 Time Course Activity 10 min (dose 12.2 nM): 11065.0
- TRPM8 Time Course Activity 50 sec % of WS5 (dose 24.4 nM): 19.2%
- TRPM8 Time Course Activity 3 min % of WS5 (dose 24.4 nM): 67.8%
- TRPM8 Time Course Activity 5 min % of WS5 (dose 24.4 nM): 80.2%
- TRPM8 Time Course Activity 10 min % of WS5 (dose 24.4 nM): 92.7%
- TRPM8 Time Course Activity 3 min (dose 24.4 nM): 6405.0
- TRPM8 Time Course Activity 5 min (dose 24.4 nM): 7593.0
- TRPM8 Time Course Activity 10 min (dose 24.4 nM): 8879.0
- TRPM8 Time Course Activity 50 sec % of WS5 (dose 48.8 nM): 29.0%
- TRPM8 Time Course Activity 3 min % of WS5 (dose 48.8 nM): 84.8%
- TRPM8 Time Course Activity 5 min % of WS5 (dose 48.8 nM): 94.9%
- TRPM8 Time Course Activity 10 min % of WS5 (dose 48.8 nM): 106.8%
- TRPM8 Time Course Activity 3 min (dose 48.8 nM): 8017.0
- TRPM8 Time Course Activity 5 min (dose 48.8 nM): 8983.0
- TRPM8 Time Course Activity 10 min (dose 48.8 nM): 10224.0
- TRPM8 Time Course Activity 50 sec % of WS5 (dose 97.6 nM): 39.4%
- TRPM8 Time Course Activity 3 min % of WS5 (dose 97.6 nM): 103.1%
- TRPM8 Time Course Activity 5 min % of WS5 (dose 97.6 nM): 113.1%
- TRPM8 Time Course Activity 10 min % of WS5 (dose 97.6 nM): 125.4%
- TRPM8 Time Course Activity 3 min (dose 97.6 nM): 9744.0
- TRPM8 Time Course Activity 5 min (dose 97.6 nM): 10711.0
- TRPM8 Time Course Activity 10 min (dose 97.6 nM): 12011.0
- TRPM8 Time Course Activity 50 sec % of WS5 (dose 195 nM): 53.9%
- TRPM8 Time Course Activity 3 min % of WS5 (dose 195 nM): 116.8%
- TRPM8 Time Course Activity 5 min % of WS5 (dose 195 nM): 124.9%
- TRPM8 Time Course Activity 10 min % of WS5 (dose 195 nM): 136.2%
- TRPM8 Time Course Activity 3 min (dose 195 nM): 11037.0
- TRPM8 Time Course Activity 5 min (dose 195 nM): 11824.0
- TRPM8 Time Course Activity 10 min (dose 195 nM): 13046.0
- TRPM8 Time Course Activity 3 min % of WS5 (dose 390 nM): 120.4%
- TRPM8 Time Course Activity 5 min % of WS5 (dose 390 nM): 126.4%
- TRPM8 Time Course Activity 10 min % of WS5 (dose 390 nM): 137.0%
- TRPM8 Time Course Activity 3 min (dose 390 nM): 11373.0
- TRPM8 Time Course Activity 5 min (dose 390 nM): 11968.0
- TRPM8 Time Course Activity 10 min (dose 390 nM): 13121.0
- TRPM8 Time Course Activity 3 min % of WS5 (dose 781 nM): 128.9%
- TRPM8 Time Course Activity 5 min % of WS5 (dose 781 nM): 133.3%
- TRPM8 Time Course Activity 10 min % of WS5 (dose 781 nM): 142.7%
- TRPM8 Time Course Activity 3 min (dose 781 nM): 12182.0
- TRPM8 Time Course Activity 5 min (dose 781 nM): 12618.0
- TRPM8 Time Course Activity 10 min (dose 781 nM): 13661.0
- TRPM8 Time Course Activity 3 min % of WS5 (dose 1.563 uM): 128.4%
- TRPM8 Time Course Activity 5 min % of WS5 (dose 1.563 uM): 132.0%
- TRPM8 Time Course Activity 10 min % of WS5 (dose 1.563 uM): 140.4%
- TRPM8 Time Course Activity 3 min (dose 1.563 uM): 12135.0
- TRPM8 Time Course Activity 5 min (dose 1.563 uM): 12499.0
- TRPM8 Time Course Activity 10 min (dose 1.563 uM): 13440.0
- TRPM8 Time Course Activity 3 min % of WS5 (dose 3.125 uM): 133.4%
- TRPM8 Time Course Activity 5 min % of WS5 (dose 3.125 uM): 136.7%
- TRPM8 Time Course Activity 10 min % of WS5 (dose 3.125 uM): 144.6%
- TRPM8 Time Course Activity 3 min (dose 3.125 uM): 12602.0
- TRPM8 Time Course Activity 5 min (dose 3.125 uM): 12939.0
- TRPM8 Time Course Activity 10 min (dose 3.125 uM): 13850.0
- TRPM8 Time Course Activity 3 min % of WS5 (dose 6.25 uM): 135.2%
- TRPM8 Time Course Activity 5 min % of WS5 (dose 6.25 uM): 138.3%
- TRPM8 Time Course Activity 10 min % of WS5 (dose 6.25 uM): 147.3%
- TRPM8 Time Course Activity 3 min (dose 6.25 uM): 12775.0
- TRPM8 Time Course Activity 5 min (dose 6.25 uM): 13098.0
- TRPM8 Time Course Activity 10 min (dose 6.25 uM): 14102.0
- TRPM8 Time Course Activity 3 min % of WS5 (dose 12.5 uM): 133.3%
- TRPM8 Time Course Activity 5 min % of WS5 (dose 12.5 uM): 137.3%
- TRPM8 Time Course Activity 10 min % of WS5 (dose 12.5 uM): 145.6%
- TRPM8 Time Course Activity 3 min (dose 12.5 uM): 12591.0
- TRPM8 Time Course Activity 5 min (dose 12.5 uM): 12997.0
- TRPM8 Time Course Activity 10 min (dose 12.5 uM): 13947.0
- TRPM8 Time Course Activity 3 min % of WS5 (dose 25 uM): 137.8%
- TRPM8 Time Course Activity 5 min % of WS5 (dose 25 uM): 141.0%
- TRPM8 Time Course Activity 10 min % of WS5 (dose 25 uM): 149.8%
- TRPM8 Time Course Activity 3 min (dose 25 uM): 13020.0
- TRPM8 Time Course Activity 5 min (dose 25 uM): 13354.0
- TRPM8 Time Course Activity 10 min (dose 25 uM): 14341.0
- TRPM8 Time Course Activity 3 min % of WS5 (dose 50 uM): 130.1%
- TRPM8 Time Course Activity 5 min % of WS5 (dose 50 uM): 133.7%
- TRPM8 Time Course Activity 10 min % of WS5 (dose 50 uM): 137.5%
- TRPM8 Time Course Activity 3 min (dose 50 uM): 12295.0
- TRPM8 Time Course Activity 5 min (dose 50 uM): 12654.0
- TRPM8 Time Course Activity 10 min (dose 50 uM): 13169.0
- TRPM8 Time Course Activity 3 min % of WS5 (dose 100 uM): 132.5%
- TRPM8 Time Course Activity 5 min % of WS5 (dose 100 uM): 135.7%
- TRPM8 Time Course Activity 10 min % of WS5 (dose 100 uM): 137.7%
- TRPM8 Time Course Activity 3 min (dose 100 uM): 12520.0
- TRPM8 Time Course Activity 5 min (dose 100 uM): 12844.0
- TRPM8 Time Course Activity 10 min (dose 100 uM): 13187.0
